Reference: patent US20250161232A1, “RETINOL FORMULATION (VI)” (DSM IP Assets B.V., priority 2022, published 2025)

Assay: Storage stability of retinol formulations at 40° C. (retinol content after storage)
Assay type: physicochemical
Settings: storage at 40° C.
Protocol: To determine the stability of these formulations, they were stored (at 40° C.) for 2 weeks and 12 weeks. And the loss of retinol was measure (the initial value was 100%).

cis/trans ratio of the retinol during storage (in words): stable
Compound: CC1=C(/C=C/C(C)=C/C=C/C(C)=C/CO)C(C)(C)CCC1 [retinol, Retinol]
